Results reported in patent US11617754B2, “Methods of treating heart failure with preserved ejection fraction” (Poxel SA, priority 2017, dated 2023).

Key:
Type in all cases: in vivo, rat
[1] = tested on: septal coronary artery of Zucker fa/fa rats; test: Coronary endothelial function: acetylcholine-induced relaxation of septal coronary artery from treated Zucker fa/fa rats; conditions: 150 mg/kg bid, administration for 9 and 90 days, serotonin-precontracted segments
Experimental: (§1) Experiments were performed on 12-week-old Male Zucker fa/fa rats or lean control rats purchased from Ch. River (US).
(§2) Animals were kept 2 per cage in standard laboratory conditions, and drugs were administered by gavage (at 9 am and at 6 pm) at the dose of 150 mg/kg bid and administered for 9 or 90 days. Imeglimin's effects on cardiac dysfunction were assessed. • First experiment protocol:
Coronary endothelial function was assessed after 9 or 90 days of treatment, as described previously (Fang Y H et al, Journal of Cardiovascular Pharmacology, 2012, 59: 260-267; Mulder et al., Eur Heart J., 2008, 29:2171-2179). In brief, at the end of the left ventricular function assessment, the heart was removed and immediately placed in cold oxygenated Krebs buffer. A 1.5- to 2-mm-long segment of arteries were carefully dissected and mounted in a small vessel myograph. Normalization procedure was performed after an equilibration period. Segments with an internal diameter<170 μm was excluded to avoid mechanical endothelial injury and unspecific dysfunction. Concentration-response curves to acetylcholine (10^−8 to 3×10^−5 mol/L) were performed in serotonin-precontracted segments (10^−5 mol/L).

[2] = tested on: Zucker fa/fa rats; test: Cardiac hemodynamics (left ventricular pressure-volume curves) in Zucker fa/fa rats
Experimental: as §1, §2
(§3) The Zucker fa/fa animals were randomized on their body weight in two groups and three groups were then constituted: • Lean rats (Treated with vehicle n=12) • Control Zucker fa/fa rats (Treated with vehicle n=18) • Imeglimin treated Zucker fa/fa rats at the dose of 150 mg/kg bid (n=18)
After a short-term treatment (9 days), cardiac function (echocardiography and MRI) and cardiac hemodynamics were assessed (1 h after the last treatment) on all rats. • Second experiment protocol:
(§4) The Zucker fa/fa animals were randomized on their body weight in two groups and three groups were then constituted: • Lean rats (Treated with vehicle n=18) • Control Zucker fa/fa rats (Treated with vehicle n=24) • Imeglimin treated Zucker fa/fa rats at the dose of 150 mg/kg bid (n=24)
(§5) After a long-term treatment (90 days), cardiac function (echocardiography and MRI) and cardiac hemodynamics were assessed (1 h after the last treatment) on all rats.
The imeglimin suspension was prepared at the concentrations used in the study (150 mg/kg) and homogenized in 10 mL of the Methylcellulose solution. The drug suspension was prepared on the day of administration.
Left ventricle function was assessed using left pressure volume curves after 9 or 90 days of treatment, as previously described (Fang Y et al, J Mol Cell Cardiol., 2011, 51:168-176; Fang Y H et al, Journal of Cardiovascular Pharmacology, 2012, 59: 260-267). In brief, a 2F miniaturized combined conductance catheter-micromanometer (model SPR-819, Millar Instruments) connected to a pressure-conductance unit (MPCU-200, Millar) was advanced retrograde via the carotid artery into the left ventricle. This catheter has a micro-manometer surrounded by 4 platinum electrodes; the two outermost electrodes generate a current of 0.1 mA at a frequency of 20 kHz, which is sensed by the two innermost electrodes. Pressure-Volume (PV) loops were recorded at baseline and during loading by gently occluding the abdominal aorta with a cotton swab. Data were stored and analysed by using Millar conductance data acquisition and analysis software. Finally, the following parameters were measured/calculated from the pressure-volume curves: • Left ventricular end-diastolic pressure; • Left ventricular end-systolic pressure; • Left ventricular relaxation constant Tau; • Left ventricular end-diastolic pressure-volume relation; and • Left ventricular end-systolic pressure-volume relation. Coronary Endothelial Function

[3] = tested on: Zucker fa/fa rats; test: Cardiac histology: LV collagen density (Sirius red) in Zucker fa/fa rats; conditions: 150 mg/kg bid, D90, mean ± SEM
Experimental: as §1, §2, §4
At the end of the treatment period, the heart was taken out. After fixation, the left ventricle was cut in 3 sections of identical thickness. The sections of the heart were dehydrated and embedded in paraffin. 3 μm-thick sections were cut from each block and mounted on glass slides. Sections were stained with Sirius red for the determination of collagen. Slides were enlarged 500 times using a microscope connected to an image analysis system, as previously described (Mulder et al., J. Am. Coll. Cardiol., 1997). Collagen density was calculated in the left ventricle as the surface occupied by collagen divided by the surface of the image.

[4] = tested on: Zucker fa/fa rats; test: Left ventricular oxidative stress: ROS production in LV homogenates by EPR, Zucker fa/fa rats; conditions: 150 mg/kg bid
Experimental: as §1, §2
Left ventricular reactive oxygen species production level were evaluated in left ventricular homogenates (obtained after 9 or 90 days of treatment) by electron paramagnetic resonance spectroscopy (EPR) using the spin probe 1-hydroxy-3-methoxycarbonyl-2,2,5,5-tetramethylpyrrolidine (CMH, Noxygen, Germany), as previously described (Mulder P, Eur Heart J. 2008; 29:2171-2179). Stock solution of CMH (50 mM) were prepared in Krebs-HEPES buffer (0.1 M NaCl, 5 mM KCl, 2.5 mM CaCl2, 1.2 mM MgSO4, 25 mM NaHCO3, 1 mM KH2PO4, 5.6 mM D(+)-Glucose, 20 mM Na-HEPES, pH 7.4) containing 25 μM deferoxamine and 5 μM diethyldithiocarbamate. […] The oxidation of CMH into the stable 3-methoxycarbonyl-proxyl (CM•), driven mainly by superoxide and peroxynitrite reactions, was recorded using a MiniScope MS-200 X-band spectrometer (Magnettech, Germany). […] Intensity of the spectra was measured from the height of the central line. CM• production was quantified using CP° standard and expressed in μmol of CM• per mg of total proteins.

[5] = tested on: Zucker fa/fa rats; test: Echocardiography, cardiac output in Zucker fa/fa rats; conditions: 150 mg/kg bid, 90 days, vs untreated Zucker fa/fa
Experimental: as §1, §2, §3
(§6) After a short-term treatment (9 days), cardiac function (echocardiography and MRI) and cardiac hemodynamics were assessed (1 h after the last treatment) on all rats. • Second experiment protocol: […]
as §5
Studies were performed on rats after 9 and 90 days of treatment. […] LV diameters were measured by the American Society of Echocardiography leading-edge method from at least 3 consecutive cardiac cycles. […]

[6] = tested on: Zucker fa/fa rats; test: Myocardial perfusion by MRI (arterial spin labeling) in Zucker fa/fa rats; conditions: 150 mg/kg bid, vs untreated Zucker fa/fa
Experimental: as §1, §2, §3, §6, §5
The ECG signal was monitored by placing two subcutaneous electrodes on each side of the rat at chest level. […] Upon subtraction of an image acquired without spin labelling, the background signal from static spins is removed and the difference image can be used to quantify perfusion. […]

[7] = 150 mg/kg bid, 90 days, vs untreated Zucker fa/fa

## CC1N=C(N)NC(N(C)C)=N1 (single isomer, unassigned; (+)) [Imeglimin, (+)-2-amino-3,6-dihydro-4-dimethylamino-6-methyl-1,3,5-triazine]
[1]
  acetylcholine-induced relaxation of septal coronary artery (FIG. 3): prevented the impairment
[2]; 150 mg/kg bid by gavage, 9 days of treatment
  reduction of the left ventricular end-diastolic pressure-volume relation: about 26%
[2]; 150 mg/kg bid by gavage, 90 days of treatment
  reduction of the left ventricular end-diastolic pressure-volume relation: ~58%
[2]; 150 mg/kg bid, 9 days, vs untreated Zucker fa/fa
  reduction of the left ventricular end-diastolic pressure-volume relation: already significant
[2]; 150 mg/kg bid, 90 days of treatment
  LV compliance increase: about 50%
[2]; [7]
  LV end-diastolic pressure (FIG. 1A): significant reduction
  LV end-diastolic pressure volume relation (FIG. 1C): significant reduction
  LV relaxation constant Tau (FIG. 1B): significant reduction
[3]
  LV collagen density: 2.52 ± 0.20 %
[4]; D9, mean ± SEM
  LV ROS production: 27.61 ± 1.29 AU · μg^−1 · h^−1
[4]; D90, mean ± SEM
  LV ROS production: 34.02 ± 1.49 AU · μg^−1 · h^−1
[5]
  cardiac output (FIG. 2A): increased
[6]; 9 days
  increase in the myocardial perfusion: already significant
[6]; 90 days
  myocardial perfusion (FIG. 2B): increased
